{"source": "paper PMC11124387", "about": "“A Reliable Multifaceted Solution against Foodborne Viral Infections: The Case of RiLK1 Decapeptide” (Molecules, 2024)", "format": "physicochemical", "experimental": "Circular Dichroism (CD) analysis was performed by a Jasco J-810 spectropolarimeter. The samples were loaded into a quartz cuvette of 0.1 cm path length (Hellma Analytics), and the spectra were recorded in the 195–250 nm range at a scan speed of 20 nm/min, averaging 5 scans. CD experiments were carried out in 10 mM Tris-HCl buffer, pH 7.0, as a function of SDS concentrations (3, 50, and 150 mM) at a peptide concentration of 50 µM. The folding kinetic measurements of the peptides were performed after the addition of SDS (50 mM) to each sample (50 µM in 10 mM Tris-HCl, pH 7.0) up to 24 h of incubation. For thermal stability analyses, the peptides were prepared to a final concentration of 50 μM in 10 mM Tris-HCl, pH 7.0, and then they were incubated at 4 and 25 °C up to 48 h before acquiring the CD spectra in the presence of 50 mM SDS. A blank spectrum of a sample containing all components except the peptide was acquired for the baseline correction of the CD spectra of the peptide. The mean residue ellipticity ([θ], deg cm^2 dmol^−1) was obtained by the equation [θ] = 100 θ/cnl, where θ is the ellipticity (mdeg), c is the peptide concentration (mM), n is the number of residues, and l is the path length (cm).\nTryptophan (Trp) fluorescence emission spectra were recorded at 25 °C on a Shimadzu RF-6000 spectrofluorometer (Kyoto, Japan), with both excitation and emission slit widths set at 5 nm. The intrinsic Trp was excited at a wavelength of 280 nm and the emission was monitored between 300 and 400 nm. Fluorescence measurements were carried out in 10 mM Tris-HCl buffer, pH 7.0, as a function of SDS concentrations (3, 50, and 150 mM) at a peptide concentration of 50 µM. The folding kinetic experiments of AVP2 and RiLK30 were performed after the addition of SDS (50 mM) to each sample (50 µM concentration in 10 mM Tris-HCl buffer, pH 7.0) up to 24 h of incubation. The effect of temperature on peptide folding was analyzed by dissolving the peptides at a final concentration of 50 µM in 10 mM Tris-HCl buffer, pH 7.0, and incubating them at 4 and 25 °C up to 48 h. The spectra were recorded in the presence of 50 mM SDS.", "data": [{"substance": "KLRWVKIWKK-NH2 [RiLK30, newly designed RiLK1 derivative, Arg residues exchanged with Lys and Lys3 with Arg]", "values": [{"measurement": "thermal (conformational) stability in SDS micellar solution", "setting": "pH 7", "value": "at least 48 h"}, {"measurement": "conformational rearrangement over time (CD and fluorescence spectra)", "setting": "peptide 50 µM, 10 mM Tris-HCl pH 7.0, SDS 50 mM, 24 h incubation at 37 °C (legend: 25 °C)", "value": "did not appear to undergo significant changes"}, {"measurement": "self-aggregation (CD in SDS)", "setting": "peptide 50 µM, 10 mM Tris-HCl pH 7.0, SDS 3, 50, 150 mM, 25 °C", "value": "high propensity to self-aggregate"}]}]}
